Patent US9012439B2, “Use of electrophilic compounds for inducing platelet production or maintaining platelet function” (University of Rochester, priority 2007, dated 2015)

How the values were obtained:
Meg-01 cells [1] = experiment: Platelet production from Meg-01 cells (flow cytometry); type: cell-based, human; settings: for platelet production / effect of antioxidant pretreatment on 15d-PGJ2-induced platelet production: Meg-01 cells; for platelet production: 10 μM, 24 h; for effect of antioxidant pretreatment on 15d-PGJ2-induced platelet production: 5 mM GSH-EE or 1 mM NAC for 2 h, then 15d-PGJ2 24 h
Protocol: Meg-01 and M07e cells were purchased from the American Type Culture Collection (Rockville, Md.) and Dami cells were a generous gift from Dr. Patricia J. Simpson-Haidaris (University of Rochester). All cells were cultured in RPMI-1640 tissue culture medium (Invitrogen) supplemented with 5% fetal bovine serum (FBS; Invitrogen), 10 mM HEPES (N-2-hydroxyethylpiperazine-N′-2-ethanesulfonic acid; Sigma), 2 mM L-glutamine (Invitrogen), 4.5 g/L glucose (Invitrogen), and 50 μg/mL gentamicin (Invitrogen). M07e cells were also supplemented with 100 ng/mL of granulocyte monocyte-colony stimulating factor (GM-CSF, R&D Systems). All treatments were performed in normal growth media. Dimethyl sulfoxide (DMSO) was used as a vehicle (control) in the experiments described below.
Platelets were isolated from megakaryocytes by centrifugation at 150 xg for 10 min. Supernatants underwent sequential centrifugation (500 xg for 10 min and 1000×g for 10 min). The remaining platelet pellet was fixed then permeabilized with a CD61 or CD41 antibody. 7-AAD (BD Pharmingen) was added for 10 min before analyzing the cells by flow cytometry. Platelets were identified using three well-described parameters (Patel et al., “The Biogenesis of Platelets from Megakaryocyte Proplatelets,” J Clin Invest 115:3348-3354 (2005); Breton-Gorius et al., “Expression of Platelet Proteins During the In Vitro and In Vivo Differentiation of Megakaryocytes and Morphological Aspects of Their Maturation,” Semin Hematol 23:43-67 (1986); Ogura et al., “Establishment of a Novel Human Megakaryoblastic Leukemia Cell Line, MEG-01, With Positive Philadelphia Chromosome,” Blood 66:1384-1392 (1985) and Franks et al., “A Fluorescence Microscopy Method for Quantifying Levels of Prostaglandin Endoperoxide H Synthase-1 and CD-41 in MEG-01 Cells,” Biol Proced Online 3:54-63 (2001), each of which is hereby incorporated by reference in its entirety), size (using normal human platelets as a control), presence of CD61 or CD41 and lack of DNA as determined by the absence of 7-AAD staining Ten thousand platelet events were collected and platelets were quantified by rate (platelet events/second) (Chung et al., “Platelet Activation in Acute, Decompensated Congestive Heart Failure,” Thromb Res 120:709-713 (2007), which is hereby incorporated by reference in its entirety.
A 19 by target sequence was selected to knock down PPARγ. PPARγ was cloned downstream of the RNA polymerase III U6 promoter and subcloned into a FG12 lentiviral vector which expresses green fluorescent protein (GFP) under the Ubiquitin C promoter. HEK 293 cells expressing this siRNA PPARγ had reduced PPARγ protein levels. To make the lentivirus, HEK 293 cells were co-transfected with 3 plasmids: the envelope vector (CMV-VSVG), the transfer vector (FG12-shRNAPPAR), and the packaging construct (pCMVΔ89.2 (gag/pol proteins)). Viral supernatants were collected every 8 h for 2 days and concentrated by ultracentrifugation at 50,000×g for 2 h at 4° C. using a Beckman SW 28 rotor. Viral titers were determined by infection of HeLa cells with serial dilutions of the viral stocks. Meg-01 cells were infected at a multiplicity of infection (MOI) of 20. After 48 h, approximately 56% of the PPARγ siRNA cells were transduced as determined by flow cytometry. The GFP positive (+) cells were then sorted by FACS and grown in RPMI with 5% FBS.

[2] = test system: primary human megakaryocytes; experiment: Platelet production from human cord blood CD34+-derived megakaryocytes; type: cell-based; settings: primary human megakaryocytes; 5 mM GSH-EE or 1 mM NAC for 2 h, then 15d-PGJ2 24 h
Protocol: Human CD34+ cord blood cells were obtained from the National Disease Research Interchange (NDRI, Philadelphia, Pa.). Cells were plated at 2.5×10^5 cells per well in a 12-well plate and cultured in serum-free medium as previously described (Zeuner et al., “Chemotherapy-induced Thrombocytopenia Derives from the Selective Death of Megakaryocyte Progenitors and Can Be Rescued by Stem Cell Factor,” Cancer Res 67:4767-4773 (2007), which is hereby incorporated by reference in its entirety) and supplemented with 100 ng/mL of rhTPO. After 14 days in culture, megakaryocytes were identified by staining with a CD61-FITC antibody and analyzed on a BD Biosciences FACSCalibur flow cytometer. Data were analyzed using FlowJo software (Treestar, Ashland, Oreg.). Cell images were captured using an inverted microscope (Olympus IX81). Platelets were isolated from megakaryocytes by centrifugation at 150 xg for 10 min. Supernatants underwent sequential centrifugation (500 xg for 10 min and 1000×g for 10 min). The remaining platelet pellet was fixed then permeabilized with a CD61 or CD41 antibody. 7-AAD (BD Pharmingen) was added for 10 min before analyzing the cells by flow cytometry. Platelets were identified using three well-described parameters (Patel et al., “The Biogenesis of Platelets from Megakaryocyte Proplatelets,” J Clin Invest 115:3348-3354 (2005); Breton-Gorius et al., “Expression of Platelet Proteins During the In Vitro and In Vivo Differentiation of Megakaryocytes and Morphological Aspects of Their Maturation,” Semin Hematol 23:43-67 (1986); Ogura et al., “Establishment of a Novel Human Megakaryoblastic Leukemia Cell Line, MEG-01, With Positive Philadelphia Chromosome,” Blood 66:1384-1392 (1985) and Franks et al., “A Fluorescence Microscopy Method for Quantifying Levels of Prostaglandin Endoperoxide H Synthase-1 and CD-41 in MEG-01 Cells,” Biol Proced Online 3:54-63 (2001), each of which is hereby incorporated by reference in its entirety), size (using normal human platelets as a control), presence of CD61 or CD41 and lack of DNA as determined by the absence of 7-AAD staining Ten thousand platelet events were collected and platelets were quantified by rate (platelet events/second) (Chung et al., “Platelet Activation in Acute, Decompensated Congestive Heart Failure,” Thromb Res 120:709-713 (2007), which is hereby incorporated by reference in its entirety.

[3] = test system: primary human megakaryocytes; experiment: Reactive oxygen species production in primary human megakaryocytes; type: cell-based; settings: pretreatment before 15d-PGJ2
Protocol: Human CD34+ cord blood cells were obtained from the National Disease Research Interchange (NDRI, Philadelphia, Pa.). Cells were plated at 2.5×10^5 cells per well in a 12-well plate and cultured in serum-free medium as previously described (Zeuner et al., “Chemotherapy-induced Thrombocytopenia Derives from the Selective Death of Megakaryocyte Progenitors and Can Be Rescued by Stem Cell Factor,” Cancer Res 67:4767-4773 (2007), which is hereby incorporated by reference in its entirety) and supplemented with 100 ng/mL of rhTPO. After 14 days in culture, megakaryocytes were identified by staining with a CD61-FITC antibody and analyzed on a BD Biosciences FACSCalibur flow cytometer. Data were analyzed using FlowJo software (Treestar, Ashland, Oreg.). Cell images were captured using an inverted microscope (Olympus IX81). Ten μM carboxy-H2DCFDA was added to cells for 20 min at RT. The cells were washed and immediately analyzed by flow cytometry. Five μM of MitoSOX Red dye in HBSS containing Mg^2+ and Ca^2+ was added to the cells for 15 min at 37° C. The cells were washed in HBSS and analyzed by flow cytometry.

Meg-01 cells [4] = experiment: Reactive oxygen species production in Meg-01 cells (carboxy-H2DCFDA, MitoSOX Red); type: cell-based, human; settings: for effect of antioxidant pretreatment on 15d-PGJ2 ROS induction: Meg-01 cells, pretreatment before 15d-PGJ2; for percentage of Meg-01 cells that produce mitochondrial superoxide (MitoSOX Red): 10 μM
Protocol: Ten μM carboxy-H2DCFDA was added to cells for 20 min at RT. The cells were washed and immediately analyzed by flow cytometry. Five μM of MitoSOX Red dye in HBSS containing Mg^2+ and Ca^2+ was added to the cells for 15 min at 37° C. The cells were washed in HBSS and analyzed by flow cytometry.

CCCCC[C@H](O)/C=C/[C@@H]1[C@H]2C/C(=C/CCCC(=O)O)O[C@H]2C[C@H]1O [PGI2]
platelet production (Meg-01 cells [1]): failed to enhance platelet production

O=C(Nc1ccccc1)c1cc([N+](=O)[O-])ccc1Cl [GW9662]
blocking of 15d-PGJ2-enhanced platelet production (Meg-01 cells [1]; Meg-01 cells pre-treated 2 h with 100 nM GW9662, then 15d-PGJ2 24 h): not blocked

CCCCC[C@H](O)/C=C/[C@@H]1[C@@H](C/C=C\CCCC(=O)O)[C@@H](O)C[C@H]1O [PGF2α]
platelet production (Meg-01 cells [1]): failed to enhance platelet production

CCCCC[C@H](O)/C=C/[C@H]1[C@H](O)CC(=O)[C@@H]1C/C=C\CCCC(=O)O [PGE2]
platelet production (Meg-01 cells [1]): failed to enhance platelet production

CCOC(=O)CNC(=O)[C@H](CS)NC(=O)CC[C@H](N)C(=O)O [GSH-EE, glutathione reduced ethyl ester, reference compound]
effect of antioxidant pretreatment on 15d-PGJ2-induced platelet production [2]: attenuate 15d-PGJ2-induced platelet production
effect of antioxidant pretreatment on 15d-PGJ2 ROS induction [3]: attenuated both ROS induction and platelet formation
effect of antioxidant pretreatment on 15d-PGJ2 ROS induction (Meg-01 cells [4]): attenuated both ROS induction and platelet formation
effect of antioxidant pretreatment on 15d-PGJ2-induced platelet production (Meg-01 cells [1]): attenuate 15d-PGJ2-induced platelet production

CCCCC[C@H](O)/C=C/[C@H]1C(=O)C=C[C@@H]1C/C=C\CCCC(=O)O [PGJ2]
percentage of Meg-01 cells that produce mitochondrial superoxide (MitoSOX Red) (Meg-01 cells [4]; 1 h): 33%
percentage of Meg-01 cells that produce mitochondrial superoxide (MitoSOX Red) (Meg-01 cells [4]; 6 h): 25%
percentage of Meg-01 cells that express ROS (carboxy-H2DCFDA) (Meg-01 cells [4]; 1 h): 65%
percentage of Meg-01 cells that express ROS (carboxy-H2DCFDA) (Meg-01 cells [4]; 6 h): 76%
platelet production (Meg-01 cells [1]): enhanced Meg-01 platelet production

CC(=O)N[C@@H](CS)C(=O)O [NAC, N-acetylcysteine, reference compound]
effect of antioxidant pretreatment on 15d-PGJ2-induced platelet production [2]: attenuate 15d-PGJ2-induced platelet production
effect of antioxidant pretreatment on 15d-PGJ2 ROS induction [3]: attenuated both ROS induction and platelet formation
effect of antioxidant pretreatment on 15d-PGJ2 ROS induction (Meg-01 cells [4]): attenuated both ROS induction and platelet formation
effect of antioxidant pretreatment on 15d-PGJ2-induced platelet production (Meg-01 cells [1]): attenuate 15d-PGJ2-induced platelet production
